How the values were obtained:
Experiment in all cases: KINOMEscan competition binding
Conditions in all cases: compound 10.0 µM
[1] = target: AKT1 (human) (UniProt P31749)
[2] = target: ALK (human) (UniProt Q9UM73)
[3] = target: CDK2 (human) (UniProt P24941)
[4] = target: CSNK1G3 (human) (UniProt Q9Y6M4)
[5] = target: DAPK2 (human) (UniProt Q9UIK4)
[6] = target: DAPK3 (human) (UniProt O43293)
[7] = target: DCLK3 (human) (UniProt Q9C098)
[8] = test system: EGFR (human), P00533 [746-750 del]
[9] = test system: EGFR (human), P00533 [A750P; 747-749 del]
[10] = test system: EGFR (human), P00533 [L858R]
[11] = target: EIF2AK1 (human) (UniProt Q9BQI3)
[12] = target: EPHA1 (human) (UniProt P21709)
[13] = target: EPHA7 (human) (UniProt Q15375)
[14] = target: FES (human) (UniProt P07332)
[15] = target: FGFR4 (human) (UniProt P22455)
[16] = test system: FLT3 (human), P36888 [D835H]
[17] = target: IKBKE (human) (UniProt Q14164)
[18] = target: IRAK1 (human) (UniProt P51617)
[19] = target: IRAK4 (human) (UniProt Q9NWZ3)
[20] = target: LIMK2 (human) (UniProt P53671)
[21] = target: MAP2K3 (human) (UniProt P46734)
[22] = target: MAP3K13 (human) (UniProt O43283)
[23] = target: MAP3K15 (human) (UniProt Q6ZN16)
[24] = target: MAPK1 (human) (UniProt P28482)
[25] = target: MAPK4 (human) (UniProt P31152)
[26] = target: MARK2 (human) (UniProt Q7KZI7)
[27] = target: MET (human) (UniProt P08581)
[28] = target: MYLK4 (human) (UniProt Q86YV6)
[29] = target: NUAK1 (human) (UniProt O60285)
[30] = target: PHKG2 (human) (UniProt P15735)
[31] = target: PI4KB (human) (UniProt Q9UBF8)
[32] = target: PIM1 (human) (UniProt P11309)
[33] = target: PKN2 (human) (UniProt Q16513)
[34] = target: ROCK2 (human) (UniProt O75116)
[35] = target: RPS6KA6 KD1 (human) (UniProt Q9UK32)
[36] = target: STK11 (human) (UniProt Q15831)
[37] = target: STK38 (human) (UniProt Q15208)
[38] = target: STK4 (human) (UniProt Q13043)
[39] = target: TBK1 (human) (UniProt Q9UHD2)
[40] = target: TESK1 (human) (UniProt Q15569)
[41] = target: TSSK1B (human) (UniProt Q9BXA7)
[42] = target: WEE2 (human) (UniProt P0C1S8)

Sequence of TESK1 (human) (Q15569 whole entry, looked up): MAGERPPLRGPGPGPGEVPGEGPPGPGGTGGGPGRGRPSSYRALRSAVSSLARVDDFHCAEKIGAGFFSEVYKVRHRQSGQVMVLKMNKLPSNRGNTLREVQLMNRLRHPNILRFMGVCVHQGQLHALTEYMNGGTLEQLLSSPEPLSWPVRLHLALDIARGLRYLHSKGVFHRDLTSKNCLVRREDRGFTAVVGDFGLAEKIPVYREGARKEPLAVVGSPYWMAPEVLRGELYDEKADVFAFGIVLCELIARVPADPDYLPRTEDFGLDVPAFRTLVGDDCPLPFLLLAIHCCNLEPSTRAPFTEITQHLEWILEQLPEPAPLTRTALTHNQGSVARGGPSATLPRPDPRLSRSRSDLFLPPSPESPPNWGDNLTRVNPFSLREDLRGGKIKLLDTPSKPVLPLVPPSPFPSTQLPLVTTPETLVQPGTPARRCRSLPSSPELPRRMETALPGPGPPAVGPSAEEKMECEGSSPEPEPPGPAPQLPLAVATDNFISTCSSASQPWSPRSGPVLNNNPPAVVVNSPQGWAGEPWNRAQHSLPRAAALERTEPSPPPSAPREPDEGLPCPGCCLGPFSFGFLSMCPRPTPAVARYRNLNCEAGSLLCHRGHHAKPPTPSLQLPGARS
Sequence of PKN2 (human) (Q16513 whole entry, looked up): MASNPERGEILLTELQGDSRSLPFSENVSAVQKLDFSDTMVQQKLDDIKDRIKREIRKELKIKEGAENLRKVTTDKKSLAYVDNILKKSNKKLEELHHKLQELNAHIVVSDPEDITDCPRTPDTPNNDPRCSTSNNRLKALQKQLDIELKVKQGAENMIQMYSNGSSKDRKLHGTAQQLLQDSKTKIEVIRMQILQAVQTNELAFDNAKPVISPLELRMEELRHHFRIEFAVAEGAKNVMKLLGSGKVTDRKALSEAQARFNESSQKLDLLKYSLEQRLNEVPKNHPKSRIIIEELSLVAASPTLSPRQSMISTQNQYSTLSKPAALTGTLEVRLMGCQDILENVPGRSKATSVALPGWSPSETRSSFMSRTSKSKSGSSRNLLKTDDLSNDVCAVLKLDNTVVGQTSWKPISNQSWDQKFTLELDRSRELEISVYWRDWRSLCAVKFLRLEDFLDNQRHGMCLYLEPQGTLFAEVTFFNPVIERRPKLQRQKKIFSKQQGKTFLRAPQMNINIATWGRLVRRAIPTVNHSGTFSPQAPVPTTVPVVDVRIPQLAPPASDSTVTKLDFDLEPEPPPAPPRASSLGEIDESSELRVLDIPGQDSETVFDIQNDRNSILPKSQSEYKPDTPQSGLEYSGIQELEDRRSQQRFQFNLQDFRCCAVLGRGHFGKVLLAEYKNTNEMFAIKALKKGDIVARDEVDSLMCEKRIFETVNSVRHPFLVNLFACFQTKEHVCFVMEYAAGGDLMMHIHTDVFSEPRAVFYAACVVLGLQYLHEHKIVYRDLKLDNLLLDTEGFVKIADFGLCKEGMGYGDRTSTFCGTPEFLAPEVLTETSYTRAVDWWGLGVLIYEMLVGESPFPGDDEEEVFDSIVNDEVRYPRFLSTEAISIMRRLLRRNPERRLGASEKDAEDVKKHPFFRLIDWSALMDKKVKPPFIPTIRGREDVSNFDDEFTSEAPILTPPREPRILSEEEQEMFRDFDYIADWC
Sequence of ALK (human) (Q9UM73 whole entry, looked up): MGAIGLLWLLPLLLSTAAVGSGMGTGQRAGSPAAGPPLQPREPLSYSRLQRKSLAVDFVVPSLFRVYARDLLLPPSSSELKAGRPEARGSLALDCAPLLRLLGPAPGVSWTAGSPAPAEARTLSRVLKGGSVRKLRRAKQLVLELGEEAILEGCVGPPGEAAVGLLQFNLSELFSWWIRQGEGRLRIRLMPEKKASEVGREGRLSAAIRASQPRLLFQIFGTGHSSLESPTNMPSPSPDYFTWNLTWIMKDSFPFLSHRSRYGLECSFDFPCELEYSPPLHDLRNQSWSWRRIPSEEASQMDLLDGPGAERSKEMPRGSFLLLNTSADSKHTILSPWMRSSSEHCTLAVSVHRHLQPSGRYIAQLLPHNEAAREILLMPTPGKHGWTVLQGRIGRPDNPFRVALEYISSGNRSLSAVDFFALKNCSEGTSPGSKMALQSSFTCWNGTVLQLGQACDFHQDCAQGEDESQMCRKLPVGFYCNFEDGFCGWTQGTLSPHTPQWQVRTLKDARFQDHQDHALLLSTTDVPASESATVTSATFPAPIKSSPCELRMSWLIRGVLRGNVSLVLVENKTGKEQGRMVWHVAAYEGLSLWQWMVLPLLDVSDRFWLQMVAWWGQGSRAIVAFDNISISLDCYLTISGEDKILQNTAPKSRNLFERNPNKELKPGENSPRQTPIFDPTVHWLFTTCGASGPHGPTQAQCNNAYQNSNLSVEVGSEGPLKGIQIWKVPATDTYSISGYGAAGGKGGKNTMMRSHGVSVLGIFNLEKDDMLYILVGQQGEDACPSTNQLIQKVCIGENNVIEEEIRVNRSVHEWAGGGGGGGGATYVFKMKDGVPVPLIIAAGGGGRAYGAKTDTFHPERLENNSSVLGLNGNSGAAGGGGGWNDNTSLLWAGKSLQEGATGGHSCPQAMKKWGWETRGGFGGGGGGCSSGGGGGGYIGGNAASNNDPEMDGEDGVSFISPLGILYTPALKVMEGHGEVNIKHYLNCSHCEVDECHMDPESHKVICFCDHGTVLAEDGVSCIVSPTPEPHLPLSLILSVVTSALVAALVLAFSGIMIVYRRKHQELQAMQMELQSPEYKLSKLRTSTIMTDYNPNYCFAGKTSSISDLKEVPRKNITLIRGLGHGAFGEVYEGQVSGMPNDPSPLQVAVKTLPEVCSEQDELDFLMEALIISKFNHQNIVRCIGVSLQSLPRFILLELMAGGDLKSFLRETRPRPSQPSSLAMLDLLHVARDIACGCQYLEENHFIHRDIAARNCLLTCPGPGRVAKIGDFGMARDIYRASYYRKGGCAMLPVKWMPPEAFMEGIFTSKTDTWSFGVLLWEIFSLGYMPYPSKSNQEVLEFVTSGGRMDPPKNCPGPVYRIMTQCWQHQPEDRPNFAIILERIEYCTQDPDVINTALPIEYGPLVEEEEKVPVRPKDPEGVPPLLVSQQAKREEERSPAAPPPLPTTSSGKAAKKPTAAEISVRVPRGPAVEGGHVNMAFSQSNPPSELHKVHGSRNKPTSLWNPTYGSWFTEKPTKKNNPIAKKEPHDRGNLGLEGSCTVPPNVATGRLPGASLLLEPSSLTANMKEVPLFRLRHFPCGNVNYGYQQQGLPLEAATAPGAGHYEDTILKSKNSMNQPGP
Sequence of FES (human) (P07332 whole entry, looked up): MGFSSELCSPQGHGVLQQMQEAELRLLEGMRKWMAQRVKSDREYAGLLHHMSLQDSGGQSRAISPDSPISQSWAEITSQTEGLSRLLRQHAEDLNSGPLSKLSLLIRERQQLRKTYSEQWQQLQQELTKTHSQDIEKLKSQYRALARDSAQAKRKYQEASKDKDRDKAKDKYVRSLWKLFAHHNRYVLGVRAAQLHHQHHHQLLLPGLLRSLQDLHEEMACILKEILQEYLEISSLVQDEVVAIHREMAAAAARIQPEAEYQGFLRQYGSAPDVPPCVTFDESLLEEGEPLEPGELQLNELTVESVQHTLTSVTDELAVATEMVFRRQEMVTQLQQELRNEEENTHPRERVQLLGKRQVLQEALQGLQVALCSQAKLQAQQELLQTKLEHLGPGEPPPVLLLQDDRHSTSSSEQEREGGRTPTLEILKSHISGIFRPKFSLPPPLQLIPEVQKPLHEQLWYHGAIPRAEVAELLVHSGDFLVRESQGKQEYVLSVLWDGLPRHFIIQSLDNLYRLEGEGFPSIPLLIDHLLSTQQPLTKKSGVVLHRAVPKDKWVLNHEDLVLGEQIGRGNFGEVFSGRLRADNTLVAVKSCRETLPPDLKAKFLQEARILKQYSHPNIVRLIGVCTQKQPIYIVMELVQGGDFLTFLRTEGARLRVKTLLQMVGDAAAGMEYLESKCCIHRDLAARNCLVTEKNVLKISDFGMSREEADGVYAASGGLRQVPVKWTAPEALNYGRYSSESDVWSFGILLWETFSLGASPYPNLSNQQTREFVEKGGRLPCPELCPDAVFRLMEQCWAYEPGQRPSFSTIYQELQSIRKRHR
Sequence of EPHA1 (human) (P21709 whole entry, looked up): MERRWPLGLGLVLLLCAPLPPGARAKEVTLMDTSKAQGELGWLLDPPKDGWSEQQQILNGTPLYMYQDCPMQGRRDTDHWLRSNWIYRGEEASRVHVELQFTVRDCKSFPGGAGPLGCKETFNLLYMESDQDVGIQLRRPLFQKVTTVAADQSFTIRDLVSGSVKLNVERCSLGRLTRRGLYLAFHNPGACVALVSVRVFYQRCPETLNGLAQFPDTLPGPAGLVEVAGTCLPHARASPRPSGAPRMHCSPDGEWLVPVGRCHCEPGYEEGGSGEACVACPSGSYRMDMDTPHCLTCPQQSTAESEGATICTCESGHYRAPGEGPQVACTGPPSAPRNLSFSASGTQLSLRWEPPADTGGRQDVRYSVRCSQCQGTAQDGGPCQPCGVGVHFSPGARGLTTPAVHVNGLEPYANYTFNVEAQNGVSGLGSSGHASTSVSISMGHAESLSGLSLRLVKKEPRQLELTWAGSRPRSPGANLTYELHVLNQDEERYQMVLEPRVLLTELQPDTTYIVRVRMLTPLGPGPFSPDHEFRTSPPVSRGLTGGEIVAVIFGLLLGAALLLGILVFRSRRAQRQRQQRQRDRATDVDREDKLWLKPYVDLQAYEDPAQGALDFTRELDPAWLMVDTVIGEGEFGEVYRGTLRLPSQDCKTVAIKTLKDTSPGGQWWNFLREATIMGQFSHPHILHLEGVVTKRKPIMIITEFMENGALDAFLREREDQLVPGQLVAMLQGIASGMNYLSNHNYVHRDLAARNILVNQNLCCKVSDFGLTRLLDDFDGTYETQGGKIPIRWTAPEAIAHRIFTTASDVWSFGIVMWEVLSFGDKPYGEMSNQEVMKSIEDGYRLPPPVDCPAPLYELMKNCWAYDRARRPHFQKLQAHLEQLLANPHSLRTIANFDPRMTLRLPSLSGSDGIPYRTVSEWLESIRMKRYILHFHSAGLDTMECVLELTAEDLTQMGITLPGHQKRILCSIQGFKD

For `Cc1cc([C@@H](C)Nc2ccccc2C(=O)O)c2nc(N3CCOCC3)cc(=O)n2c1`, the kinase still bound, per cent of control [1] was 100%, the kinase still bound, per cent of control [2] was 100% and the kinase still bound, per cent of control [3] was 64%. It also gave a kinase still bound, per cent of control [4] of 95%, a kinase still bound, per cent of control [5] of 74% and a kinase still bound, per cent of control [6] of 78%. For the same molecule, the kinase still bound, per cent of control [7] was 100%, the kinase still bound, per cent of control [8] was 100% and the kinase still bound, per cent of control [9] was 100%. For the same molecule, the kinase still bound, per cent of control [10] was 96%, the kinase still bound, per cent of control [11] was 100% and the kinase still bound, per cent of control [12] was 100%. It also gave a kinase still bound, per cent of control [13] of 87%, a kinase still bound, per cent of control [14] of 100% and a kinase still bound, per cent of control [15] of 40%. The kinase still bound, per cent of control [16] was 32%, the kinase still bound, per cent of control [17] was 100% and the kinase still bound, per cent of control [18] was 100%. The kinase still bound, per cent of control [19] was 100%, the kinase still bound, per cent of control [20] was 100% and the kinase still bound, per cent of control [21] was 99%. For the same molecule, the kinase still bound, per cent of control [22] was 100%, the kinase still bound, per cent of control [23] was 55% and the kinase still bound, per cent of control [24] was 100%. For the same molecule, the kinase still bound, per cent of control [25] was 82%, the kinase still bound, per cent of control [26] was 100% and the kinase still bound, per cent of control [27] was 95%. The kinase still bound, per cent of control [28] was 75%, the kinase still bound, per cent of control [29] was 100% and the kinase still bound, per cent of control [30] was 67%. It also gave a kinase still bound, per cent of control [31] of 89%, a kinase still bound, per cent of control [32] of 100% and a kinase still bound, per cent of control [33] of 74%. The kinase still bound, per cent of control [34] was 89%, the kinase still bound, per cent of control [35] was 80% and the kinase still bound, per cent of control [36] was 97%. It also gave a kinase still bound, per cent of control [37] of 84%, a kinase still bound, per cent of control [38] of 72% and a kinase still bound, per cent of control [39] of 100%. It also gave a kinase still bound, per cent of control [40] of 100%, a kinase still bound, per cent of control [41] of 79% and a kinase still bound, per cent of control [42] of 100%.

Source: the kinase profiling compilation of Christmann-Franck et al. (2016)
